Reference: patent US20060084697A1, “Pi3k antagonists as radiosensitizers” (priority 2002, published 2006)

Columns and labels:
Akt = test: Western blot of radiation-induced Akt phosphorylation in HUVEC; type: cell-based, human; details: HUVEC
Text: HUVEC cells were obtained from Clonetics and were maintained in EBM-2 medium supplemented with EGM™-2MV SINGLEQUOTS® (Bio-Whittaker, Inc., Walkersville, Md., United States of America). An Eldorado-8 Cobalt-60 teletherapy unit (Atomic Energy of Canada Limited, Mississauga, Ontario, Canada) was used to irradiate endothelial cell cultures at a dose rate of 0.84 Gy per minute. Delivered doses ranging from 0 to 12 Gy were verified by use of thermoluminescence detectors.
In order to determine if Akt is phosphorylated in response to irradiation, cultured HUVEC cells were serum starved for 4 hours, exposed to irradiation, and the phosphorylation of Akt was examined in cell extracts by Western blotting. Total cellular protein was extracted after radiation treatment as follows. Cells were counted and then washed with iced-cold PBS twice before the addition of lysis buffer (M-PER™ mammalian protein extraction reagent; Pierce Chemical Company, Rockford, Ill., United States of America; or 20 mM Tris, 150 mM NaCl, 1 mM EDTA, 1% Triton X-100, 2.5 mM sodium pyrophosphate, 1 mM phenylmethylsulphonyl fluoride (PMSF), and […] Leupeptin (Roche Molecular Biochemicals, Indianapolis, Ind., United States of America)). Protein concentrations were quantified using the Biorad method (Bradford, 1976). 50 μg protein was loaded into each well of an 8% sodium dodecyl […]-polyacrylamide gel electrophoresis (SDS-PAGE) gel and separated by electrophoresis. The proteins were subsequently transferred onto 0.45 μm nitrocellulose membranes. Membranes were blocked by incubation for 2 hours at room temperature in phosphate buffered saline-Triton (PBST: 0.9% NaCl, 0.3% Triton X-100, pH 7.4) containing 10% nonfat dry milk.
The presence of Akt protein on the membrane was determined as follows. The membranes were incubated with a 1:1000 dilution of rabbit antibody directed against either phosphorylated (Ser473) or non-phosphorylated human Akt overnight at 4° C. Rabbit antibodies were obtained from Cell Signaling Technology, Beverly, Mass., United States of America. The blots were then washed with PBST to remove unbound rabbit antibodies. The washed blots were then incubated for 1 hour at room temperature with a donkey anti-rabbit IgG secondary antibody (Amersham Biosciences, Piscataway, N.J., United States of America) diluted 1:1000 in PBST. The blots were again washed with PBST to remove unbound donkey antibodies. The presences of both phosphorylated and non-phosphorylated human Akt were determined by chemiluminescent detection of donkey anti-rabbit/rabbit anti-human Akt complexes using the ECL™ detection system (Amersham Biosciences) according to the manufacturer's protocol, followed by autoradiography. […]

HUVEC cells = test: Clonogenic survival analysis of HUVEC; type: cell-based, human
Procedure: The ability of PI3K antagonist to suppress the clonogenic potential of HUVEC cells treated with radiation was assayed by clonogenic survival analysis. The ability of HUVEC cells treated with LY294002 30 minutes prior to irradiation to form colonies was compared to that of HUVEC cells treated with either radiation or LY294002 alone, and also to that of untreated HUVEC cells. […] Briefly, groups of three HUVEC culture plates were treated at each of four radiation dose levels: 2, 4, 6, and 8 Gy, either with or without prior treatment with PI3K antagonists as described in Example 2. After treatment with radiation and/or antagonists, cells were trypsinized, counted by hemocytometer, and subcultured into fresh medium. After 14 days, the cells were fixed with cold methanol and stained with 1% methylene blue. Colonies with greater than 50 cells were counted and the surviving fraction was determined.
To determine whether broad spectrum RTK inhibition enhances the cytotoxic effects of radiation on vascular endothelium, SU11248 was added 30 minutes prior to irradiation. HUVECs were treated with vehicle control, and either 100 nM SU11248 orvehicle combined with 6 Gy.

O=c1cc(N2CCOCC2)oc2c(-c3ccccc3)cccc12 [LY294002, 2-(4-Morpholinyl)-8-phenyl-4H-1-benzopyran-4-one]
total Akt levels (Akt; wortmannin 4 nM or LY294002 2 μM): no effect
Akt phosphorylation following irradiation (Akt; wortmannin 4 nM or LY294002 2 μM added 30 minutes prior to irradiation, 3 Gy): strong inhibition
radiation-induced cytotoxicity compared to radiation alone (HUVEC cells; HUVEC treated 30 minutes prior to 2, 4, 6, 8 Gy, p<0.05): significantly enhanced
plating efficiency, % of untreated control cells (HUVEC cells; unirradiated HUVEC treated for 30 minutes): 70%
